This is an account of results in patent EP2114888B1, “TRICYCLIC COMPOUNDS AND THEIR USE AS GLUCOCORTICOID RECEPTOR MODULATORS” (priority 2007, dated 2008).

Structures can show the parent of a compound that is named as a salt. A value given as a limit tells only on which side of the number the result lay.

Series [1] deals with IL-6. The series can be described thus: IL-1β-stimulated IL-6 production in A549 lung epithelial cells. It is filed as cell-based, Human. To be noted: A549 cells; Prednisolone (1 µM) = 100% inhibition control. As to the method:
Human A549 lung epithelial cells (American Type Culture Collection, Rockville, MD) were cultured in Kaighn's F-12K medium with penicillin-streptomycin (10 U/mL) and 10% heat-inactivated fetal bovine serum (all from Invitrogen, Grand Island, NY). A549 cells were plated at a density of 30,000 cells/well in 96-well plates and incubated overnight at 37°C and with 5% CO2. The cells were serum-starved by replacing the growth medium with serum-free Kaighn's F-12K medium with penicillin-streptomycin (10 U/mL) and, again, incubating overnight at 37°C and with 5% CO2. On the third day, the medium was replaced with fresh serum-free medium and the cells were incubated with or without compound (vehicle was DMSO at 0.1 % maximum concentration) for approximately 1 hour and then stimulated with 1 ng/mL recombinant human IL-1β (R&D Systems, Minneapolis, MN) for 20 hours at 37°C and with 5% CO2. Cell supernatants were collected for determination of IL-6 levels using MSD (Meso Scale Discovery, Gaithersburg, MD) 96-well Single Spot plates as per the manufacturer's instructions. Plates were read with an MSD Sector Imager 6000. […] Percent inhibition for each compound concentration, relative to these controls, was calculated using Excel (Microsoft, Redmond, WA). IC50 values were generated using GraFit 5.0 data analysis software (Erithacus Software Ltd., Surrey, UK).

Series [2] has as its system Mouse Collagen-induced arthritis (mCIA). As to the kind of experiment: Therapeutic mouse collagen-induced arthritis (mCIA) model. In kind it is in vivo, Male DBA/J mice. To be noted: for Therapeutic mCIA (ED80 dose): dosing day 34 through day 49. The source says:
Mouse Collagen-induced arthritis is a commonly used chronic, preclinical model of rheumatoid arthritis in which joint swelling and bone destruction occur following immunization with type II collagen. Reduction of disease incidence and severity has been shown previously to be predictive of disease-modification and signs and symptoms mitigation, respectively, in a clinical setting. In the therapeutic mCIA model, induction of disease incidence and severity was synchronized via LPS stimulation. Male DBA/J mice were immunized with 100 ug of bovine type II collagen (bCII) on day 0. […] Dosing of compounds was initiated in the therapeutic mode on day 34 and continued through day 49. Different treatments were compared by measuring the decrease in incidence (i.e., resolution of disease) and the decrease in severity of paw swelling over time.

Series [3] deals with TNFα. The series can be described thus: LPS-induced serum TNFα suppression, 28-day repeat dose mouse model. In kind it is in vivo, Swiss Webster female mice. Conditions: for TNFα Suppression (ED80 dose): oral gavage, 28 days, LPS-induced serum TNFα. As to the method:
(§1) The compounds were weighed and suspended in a vehicle of 0.5% methylcellulose/0.025% tween 20 (Sigma-Aldrich, St. Louis, MO). Compound suspensions were homogenized using a Polytron PT-3100 tissue homogenizer to create a very fine suspension and were then sonicated for 10 minutes using a water bath sonicator. Aliquots of each suspension were made for daily dosing at 0.2 ml/dose. Swiss Webster female mice, 10-12 weeks old, 28-29 grams, (Taconic, Germantown, NY) were used in accordance with the guidelines of the Institutional Animal Care and Use Committee and in accordance with NIH guidelines on laboratory animal welfare. Mice were acclimated in the Pfizer animal facility for three to seven days prior to being utilized in a study. […] Each treatment group contained 5-10 mice. To establish a dosing regimen for the studies, a pilot pharmacodynamic time course experiment was conducted to quantify TNFα repression after a single ED80 dose.
(§2) Body weights were measured on the first and last day of each experiment. Blood samples were obtained after three weeks of dosing for a steady-state pharmacokinetic (PK) analysis. To assess compound effects on LPS-induced TNFα, all mice received an intraperitoneal injection of LPS (Salmonella typhosa, L-7895; Sigma-Aldrich, St. Louis,) 2.5 hr after the last dose on day 28. Mice were sacrificed 90 minutes after LPS administration. Serum samples were quantified for osteocalcin and TNFα using the multiplex assays (Linco Research, Inc, St. Charles, MO; Luminex 100, Austin, TX). Samples were diluted 1:20 and the assay was run according to manufacturer's instructions. The osteocalcin standard was purchased separately (Biomedical Technologies Inc., Stoughton, MA). Mice were fasted for 4 hours before serum was collected for TNFα, and osteocalcin levels. For each experiment, outliers were detected by calculating the number of standard deviations from the mean of the group. If the value being examined was more than 2.5 standard deviations from the mean, it was excluded from the rest of the calculations.
(§3) The individual mouse percent inhibition values were fit to a four-parameter logistic model using the dose mean for each group.
(§4) ED50 and ED80 values were obtained for the various endpoints using a four-parameter logistic fit. For compounds which were tested multiple times, ED50 and ED80 values were obtained using four-parameter logistic fits of the combined data from multiple experiments.

The subject of series [4] is TNFα. The series can be described thus: LPS-stimulated TNFα production in differentiated U937 cells. Conditions: for TNFα % Inhibition: U937 cells. It is filed as cell-based, Human. As to the method:
Human U937 pre-monocytic cells (American Type Culture Collection, Rockville, MD) were cultured in RPMI 1640 with glutamine (2 mM), penicillin-streptomycin (10 U/mL) and 10% heat-inactivated fetal bovine serum (all from Invitrogen, Grand Island, NY). Cells were differentiated to a monocyte/macrophage phenotype with phorbol 12-myristate 13-acetate (Sigma-Aldrich, St. Louis, MO), 20 ng/mL, overnight. The cells were then centrifuged, the medium aspirated, the cells resuspended in an equal volume of fresh RPMI 1640 medium with glutamine and penicillin-streptomycin and fetal bovine serum as listed above, and incubated for 48 hours at 37°C and with 5% CO2. Following recovery, the cells were scraped, counted, and plated in accordance to the experimental design prior to stimulation with LPS, as described below.
U937 cells were differentiated and plated at a density of 200,000 cells/well in 96-well plates. Cells were incubated with or without compound (vehicle was DMSO at 1% maximum concentration) for approximately one hour and then stimulated with 100 ng/mL lipopolysaccharide (LPS), E. coli serotype 0111:B4 (Sigma-Aldrich, St. Louis, MO) for four hours at 37°C and with 5% CO2. Cell supernatants were collected for determination of TNFα levels using an in-house sandwich-type ELISA. Mouse anti-human TNFα monoclonal antibody (clone 28401.111) and biotinylated goat anti-human TNFα (R&D Systems, Minneapolis, MN) were used as the capture and detection antibodies, respectively. Streptavidin-horseradish peroxidase (HRP) (R&D Systems, Minneapolis, MN) and K-Blue Substrate/Red Stop (Neogen, Lexington, KY) were used as the detection system. Absorbance was measured at 650 nm. TNFα concentrations were interpolated from a human TNFα recombinant protein (R&D Systems, Minneapolis, MN) standard curve using a four parameter logistics model by Magellan 4.11 data analysis software (Tecan, Durham, NC). […] Vehicle was used to define the 0% inhibition control. Percent inhibition for each concentration of compound, relative to these controls, was calculated using Excel (Microsoft, Redmond, WA). IC50 values were generated using LabStats Fit Curve V4.R7.MO data analysis software (Pfizer Sandwich Laboratories, UK and Tessella Support Services plc, Abingdon UK).

Series [5] can be described thus: Serum osteocalcin suppression, 28-day repeat dose mouse model. Conditions: in vivo, po. The method, then:
as §1, §2, §3, §4

For series [6], the system named is osteocalcin. Described as above. Conditions: in vivo, po. The method, then:
as §1, §2, §3, §4

[7] abbreviates: Prednisolone (1 µM) = 100% inhibition control.

As for `Cc1ncccc1NC(=O)c1ccc2c(c1)[C@H](O)C[C@@H]1C[C@@](O)(C(F)(F)F)CC[C@@]21Cc1ccccc1` [Comparator F, (4βS,7R,8αR,10R)-4β-benzyl-7,10-dihydroxy-N-(2-methylpyridin-3-yl)-7-(trifluoromethyl)-4β,5,6,7,8,8α,9,10-octahydrophenanthrene-2-carboxamide], the “IL-6 % Inhibition” value in series [1] was 83.3%. Moreover, in series [2], the “Therapeutic mCIA (ED80 dose)” value is above 10 mg/kg. For the same compound, in series [3], the “TNFα Suppression (ED80 dose)” value worked out at 5.67 mg/kg.
The term inhibition denotes the percentage by which the read-out fell short of the control. As usually defined, the ED50 is the dose at which the effect has come halfway, by size or by number of responders. `C[C@]12C=CC(=O)C=C1CC[C@@H]1[C@@H]2[C@@H](O)C[C@@]2(C)[C@H]1CC[C@]2(O)C(=O)CO` [Prednisolone, reference compound]: in series [4] (Homo sapiens, U-937, read-out: TNFα % Inhibition), the inhibition at 1 µM stood at 100%. Also, in series [5], the ED50 was determined as 1 mg/kg. Besides, in series [6], the “Osteocalcin Suppression (ED80 dose)” value turned out to be 6.80 mg/kg. Also, the ED80 stood at 5.5 mg/kg in series [2] (Mus musculus, read-out: Therapeutic mCIA (ED80 dose)) and 2.1 mg/kg in series [3] (Mus musculus, po, 672 h, read-out: TNFα Suppression (ED80 dose)).
`Cc1ncc(NC(=O)c2ccc3c(c2)CC[C@@H]2C[C@@](O)(CCC(F)(F)F)CC[C@@]32Cc2ccccc2)c(C)n1` [Comparator J, (4βS,7S,8αR)-4β-benzyl-N-(2,4-dimethylpyrimidin-5-yl)-7-hydroxy-7-(3,3,3-trifluoropropyl)-4β,5,6,7,8,8α,9,10-octahydrophenanthrene-2-carboxamide]: the “IL-6 % Inhibition” value in series [1] is 55%. Moreover, the “Therapeutic mCIA (ED80 dose)” value in series [2] is reported as above 20 mg/kg. Moreover, the “TNFα Suppression (ED80 dose)” value in series [3] worked out at 0.79 mg/kg.
`Cc1ncccc1CNC(=O)c1ccc2c(c1)CC[C@@H]1C[C@@](O)(CCC(F)(F)F)CC[C@@]21Cc1ccccc1` [Comparator A, (4βS,7S,8αR)-4β-benzyl-7-hydroxy-N-((2-methylpyridin-3-yl)methyl)-7-(3,3,3-trifluoropropyl)-4β,5,6,7,8,8α,9,10-octahydrophenanthrene-2-carboxamide, reference compound]: in series [4] (setting [7]), the “TNFα % Inhibition” value came out at 35%. Further, the “IL-6 % Inhibition” value in series [1] was 59.9%.
For the compound `Cc1ncccc1NC(=O)c1ccc2c(c1)CC[C@@H]1C[C@@](O)(C(F)F)CC[C@@]21Cc1ccccc1` [Comparator H, (4βS,7R,8αR)-4β-benzyl-7-(difluoromethyl)-7-hydroxy-N-(2-methylpyridin-3-yl)-4α,5,6,7,8,8α,9,10-octahydrophenanthrene-2-carboxamide], the “IL-6 % Inhibition” value in series [1] stood at 64.9%. In addition, in series [3], the “TNFα Suppression (ED80 dose)” value is reported as 0.72 mg/kg.
Regarding `Cc1ncccc1NC(=O)c1ccc2c(c1)CC[C@@H]1C[C@@](O)(CCC(F)(F)F)CC[C@@]21Cc1ccccc1` [Comparator C, (4βS,7S,8αR)-4β-benzyl-7-hydroxy-N-(2-methylpyridin-3-yl)-7-(3,3,3-trifluoropropyl)-4β,5,6,7,8,8α,9,10-octahydrophenanthrene-2-carboxamide], the “IL-6 % Inhibition” value in series [1] came out at 82.6%. Further, the “Therapeutic mCIA (ED80 dose)” value in series [2] is above 10 mg/kg. Besides, in series [3], the “TNFα Suppression (ED80 dose)” value was 1.33 mg/kg.
`Cc1cnc(NC(=O)c2ccc3c(c2)CC[C@@H]2C[C@@](O)(C(F)(F)F)CC[C@@]32Cc2ccccc2)c(C)n1` [Comparator B, (4βS,7R,8αR)-4β-benzyl-N-(3,5-dimethylpyrazin-2-yl)-7-hydroxy-7-(trifluoromethyl)-4α,5,6,7,8,8α,9,10-octahydrophenanthrene-2-carboxamide]: the “IL-6 % Inhibition” value in series [1] was 75.8%. For the same compound, in series [2], the “Therapeutic mCIA (ED80 dose)” value was above 10 mg/kg. In addition, the “TNFα Suppression (ED80 dose)” value in series [3] turned out to be 2.91 mg/kg.
For the compound `Cc1ncccc1NC(=O)c1ccc2c(c1)C(=O)C[C@@H]1C[C@@](O)(C(F)(F)F)CC[C@@]21Cc1ccccc1` [Comparator E, (4βS,7R,8αS)-4β-benzyl-7-hydroxy-N-(2-methylpyridin-3-yl)-10-oxo-7-(trifluoromethyl)-4α,5,6,7,8,8α,9,10-octahydrophenanthrene-2-carboxamide], the “IL-6 % Inhibition” value in series [1] came out at 79.7%. Further, in series [2], the “Therapeutic mCIA (ED80 dose)” value is recorded as 2.6 mg/kg. In addition, the “TNFα Suppression (ED80 dose)” value in series [3] amounted to 1.18 mg/kg.
`Cc1ncccc1NC(=O)c1ccc2c(c1)C=C[C@@H]1C[C@@](O)(C(F)(F)F)CC[C@@]21Cc1ccccc1` [Comparator I, (4βS,7R,8αS)-4β-benzyl-7-hydroxy-N-(2-methylpyridin-3-yl)-7-(trifluoromethyl)-4β,5,6,7,8,8α-hexahydrophenanthrene-2-carboxamide]: the “IL-6 % Inhibition” value in series [1] is reported as 67.5%. The “Therapeutic mCIA (ED80 dose)” value in series [2] is reported as above 20 mg/kg. Moreover, the “TNFα Suppression (ED80 dose)” value in series [3] worked out at 5.45 mg/kg.
With `Cc1ccncc1NC(=O)c1ccc2c(c1)CC[C@@H]1C[C@@](O)(C(F)(F)F)CC[C@@]21Cc1ccccc1` [Comparator D, (4βS,7R,8αR)-4β-benzyl-7-hydroxy-N-(4-methylpyridin-3-yl)-7-(trifluoromethyl)-4,5,6,7,8,8α,9,10-octahydrophenanthrene-2-carboxamide], the “IL-6 % Inhibition” value in series [1] is listed as 79.8%. Also, the “TNFα Suppression (ED80 dose)” value in series [3] was above 20 mg/kg.
Consider `Cc1ncccc1NC(=O)c1ccc2c(c1)CC[C@@H]1C[C@@](O)(C(F)(F)F)CC[C@@]21Cc1ccccc1` [Example 1 HCL salt, (4βS,7R,8αR)-4β-benzyl-7-hydroxy-N-(2-methylpyridin-3-yl)-7-(trifluoromethyl)-4β,5,6,7,8,8α,9,10-octahydrophenanthrene-2-carboxamide], for which the “TNFα % Inhibition” value in series [4] (setting [7]) is given as 77.1%; in series [4] (additional result (footnote a)) it was 62%. In addition, the “IL-6 % Inhibition” value in series [1] amounted to 76.9%.
